What is called IC50 is the concentration at which inhibition is half-maximal. As usually defined, the Ki is the equilibrium dissociation constant of an inhibitor or competing ligand from its target. One may read the solubility as the dissolved amount per volume that the medium holds. What is called pIC50 is the negative decadic logarithm of the IC50, by convention in mol/L. Read a low pIC50 as a high IC50. The pKi is −log10 of the Ki, conventionally taken in molar units. Lower therefore signals a high Ki. Broadly, the pEC50 is the negative decadic logarithm of the EC50, by convention in mol/L. High values mean a small EC50, low ones a large EC50.

The values that follow come from ChEMBL document CHEMBL5223081 (J Med Chem, 2021).

Series [1] is described as follows: Inhibition of PDE2 derived from bovine heart by scintillation counter analysis. The arrangement: species or system Bos taurus.
For the next series, the target named is T1, Adenosine receptor A3 (Homo sapiens, UniProt P0DMS8).
T1 sequence (P0DMS8 whole entry): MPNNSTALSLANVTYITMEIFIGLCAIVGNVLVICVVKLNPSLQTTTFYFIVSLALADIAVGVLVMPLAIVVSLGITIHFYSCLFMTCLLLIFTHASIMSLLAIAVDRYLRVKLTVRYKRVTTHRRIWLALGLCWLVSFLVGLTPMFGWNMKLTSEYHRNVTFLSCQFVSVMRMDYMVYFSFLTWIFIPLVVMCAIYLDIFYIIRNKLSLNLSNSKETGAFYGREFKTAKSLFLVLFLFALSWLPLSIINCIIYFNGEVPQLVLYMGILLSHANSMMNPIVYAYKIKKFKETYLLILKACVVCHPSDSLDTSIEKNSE
Description: Binding affinity to human A3 adenosine receptor assessed as inhibition constant.

The species entered for series [2] is Homo sapiens. The series is described as follows: Selectivity index, ratio of Ki for human A2 receptor to Ki for A1 receptor assessed as fold change.
A short description of series [3]: Aqueous solubility of compound. The class given is physicochemical.
For series [4], the species on record is Homo sapiens. Description: Selectivity index, ratio of antagonist activity at A1 receptor to antagonist activity at A2 receptor.
Series [5] can be described thus: Inhibition of human glycogen phosphorylase.
Series [6] can be described thus: Inhibition of human glycogen phosphorylase in presence of 0.2 mM of AMP.
Series [7] addresses Nuclear receptor subfamily 2 group E member 1 (Homo sapiens, UniProt Q9Y466). The series is described as follows: Inhibition of tlx (unknown origin).
The next series deals with T2, Guanine deaminase (Homo sapiens, UniProt Q9Y2T3).
T2 sequence (Q9Y2T3 whole entry): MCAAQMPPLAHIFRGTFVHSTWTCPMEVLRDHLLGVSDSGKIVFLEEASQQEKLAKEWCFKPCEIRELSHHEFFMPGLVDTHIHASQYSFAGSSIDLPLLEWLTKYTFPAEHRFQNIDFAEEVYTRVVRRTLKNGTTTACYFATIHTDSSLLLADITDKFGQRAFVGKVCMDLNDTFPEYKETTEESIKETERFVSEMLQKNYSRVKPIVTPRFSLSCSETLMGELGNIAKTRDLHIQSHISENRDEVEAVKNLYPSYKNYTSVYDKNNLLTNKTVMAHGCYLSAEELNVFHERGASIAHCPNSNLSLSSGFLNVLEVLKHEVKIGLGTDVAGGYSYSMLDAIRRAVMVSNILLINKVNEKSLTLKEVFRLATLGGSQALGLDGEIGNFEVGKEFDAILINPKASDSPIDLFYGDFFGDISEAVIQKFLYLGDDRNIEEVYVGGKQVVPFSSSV
The series is described as follows: Inhibition of guanine deaminase (unknown origin).

The nature of series [8]: Inhibition of PI3-kinase (unknown origin). On the set-up: species or system Homo sapiens.
The target of series [9] is GABA-A receptor; anion channel. Description: Inhibition of GABAA receptors (unknown origin). The class given is protein-complex assay, Homo sapiens.
The nature of series [10]: Inhibition of Glycogen phosphorylase (unknown origin). On the set-up: species or system Homo sapiens.
Series [11] is described as follows: Inhibition of ryanodine receptor (unknown origin). On the set-up: species or system Homo sapiens.
Series [12] has as its target T3, Palmitoleoyl-protein carboxylesterase NOTUM (Homo sapiens, UniProt Q6P988).
T3 sequence (Q6P988 whole entry): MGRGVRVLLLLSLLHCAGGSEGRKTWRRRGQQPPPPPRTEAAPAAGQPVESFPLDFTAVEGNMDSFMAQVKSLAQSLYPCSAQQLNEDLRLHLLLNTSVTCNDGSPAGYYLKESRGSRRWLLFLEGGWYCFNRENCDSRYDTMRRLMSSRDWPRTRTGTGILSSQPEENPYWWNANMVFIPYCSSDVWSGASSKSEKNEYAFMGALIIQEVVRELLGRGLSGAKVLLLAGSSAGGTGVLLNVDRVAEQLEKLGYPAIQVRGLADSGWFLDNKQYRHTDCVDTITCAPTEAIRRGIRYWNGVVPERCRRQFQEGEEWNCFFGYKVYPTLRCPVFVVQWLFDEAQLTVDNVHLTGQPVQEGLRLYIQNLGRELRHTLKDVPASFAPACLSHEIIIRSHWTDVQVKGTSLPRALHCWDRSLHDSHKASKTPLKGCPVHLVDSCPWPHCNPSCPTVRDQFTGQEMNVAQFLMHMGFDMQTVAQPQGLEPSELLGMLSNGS
The series is described as follows: Inhibition of notum (unknown origin).

Series [13] in a line: Inhibition of phosphodiesterase (unknown origin). The arrangement: species or system Homo sapiens.
A short description of series [14]: Inhibition of bile export protein (unknown origin). On the set-up: species or system Homo sapiens.
Series [15] is described as follows: Inhibition of human PDE5 derived from platelets by scintillation counter analysis.
The species named for series [16] is Homo sapiens. Description: Selectivity index, ratio of Ki for human A2A receptor to Ki for human A3 receptor assessed as fold change.
Series [17] is filed under the species Homo sapiens. The series is described as follows: Selectivity index, ratio of Ki for human A1 receptor to Ki for human A3 receptor assessed as fold change.

Each structure is given as a SMILES string. Some results are limits rather than exact numbers.

Chain of Nuclear receptor subfamily 2 group E member 1 (Q9Y466 whole entry): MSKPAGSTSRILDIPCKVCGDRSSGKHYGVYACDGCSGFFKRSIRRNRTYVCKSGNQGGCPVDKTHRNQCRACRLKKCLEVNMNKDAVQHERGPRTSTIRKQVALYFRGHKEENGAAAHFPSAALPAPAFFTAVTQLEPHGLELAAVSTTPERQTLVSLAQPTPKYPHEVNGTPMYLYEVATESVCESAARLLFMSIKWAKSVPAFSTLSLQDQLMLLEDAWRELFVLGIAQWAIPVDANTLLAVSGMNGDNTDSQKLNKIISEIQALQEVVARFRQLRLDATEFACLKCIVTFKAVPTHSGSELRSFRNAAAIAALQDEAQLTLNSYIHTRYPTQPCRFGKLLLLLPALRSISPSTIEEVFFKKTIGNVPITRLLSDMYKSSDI

Compound `COc1ccc(Cc2nc(O)c3c(C)nc([C@@H](CCCc4ccccc4)[C@@H](C)O)n3n2)cc1OC` came in with an IC50 in series [1] of 0.0047 µM.
For the compound `CC[C@@H]1CN2C(=O)N(C)c3nc(-c4cc(Cl)cc(Cl)c4Cl)[nH]c3C2=N1`, the Ki at Adenosine receptor A3 amounted to 0.000433 µM.
As for `CCCn1c(=O)c2nc(-c3ccc(OCC(N)=O)cc3O)[nH]c2n(CCC)c1=O`, the Ratio Ki in the series filed under Homo sapiens [2] is 190.
In turn, `CCCn1c(=O)c2c(nc(/C=C/c3ccc(OC)c(OC)c3)n2C)n(CCC)c1=O` had a solubility in [3] of less than 10 µg/mL.
As for `CCCn1cnc2c1c(=O)n(C)c(=O)n2C`, the Ratio in the series filed under Homo sapiens [4] was 10.
Turning to `Cn1c(=O)c2c(ncn2C)n(C)c1=O` [CAFFEINE], the IC50 in [5] was 92 µM; in series [6], 360 µM; in series [7], 7.94 µM; in series [12], 100 µM. On Guanine deaminase, this compound had a Ki of 10 µM. For the same compound, the pIC50 result in [8] is “<= 4.1”; in [13], less than 4; in series [14] it was 4. In addition, the results for the pKi in series [9] and in series [10] were less than 4 and 4, respectively. This compound had a negative logarithm of the EC50 (pEC50) in series [11] of less than 4.
In the case of `Cn1c(=O)c2[nH]c(-c3ccc(S(=O)(=O)O)cc3)nc2n(C)c1=O`, in series [3], the solubility is more than 20 µM.
Compound `CCCc1nn(C)c2c(=O)[nH]c(-c3cc(S(=O)(=O)N4CCN(C)CC4)ccc3OCC)nc12` gave an IC50 in [15] of 0.01 µM.
Take `CCCn1c(=O)c2nc(C3CC4CC3C3OC43)[nH]c2n(CCC)c1=O` (stereo unspecified): the Ratio Ki in the series filed under Homo sapiens [2] came to 400.
For the compound `CCCCn1c(=O)c2c(ncn2[C@@H]2O[C@H](C(=O)NC)[C@@H](O)[C@H]2O)n(CCCC)c1=O`, the Ratio Ki in the series filed under Homo sapiens [16] was more than 400; in the series filed under Homo sapiens [17], 160.
